This is an account of results in patent publication US8367317B2, “Variants of hepatitis B virus with resistance to anti-viral nucleoside agents and applications thereof” (Melbourne Health; St. Vincent's Hospital Melbourne; Austin …, priority 2005, dated 2013).

The structures appear in SMILES notation. Counter-ions that a name gives are not always drawn.

Assay [1] relates to HBV mutant L180M quad (rt L180M, T184G, S202I, M204V). Nature of the assay: Antiviral testing in HepG2 cells transduced with recombinant HBV/baculovirus, L180M quad mutant. The assay is classed as cell-based, hepatitis B virus. The note with it: area under dose-response curve, value relative to WT = 1.0. The protocol: (§1) The sensitivity/resistance profile of HBV mutants to adefovir, tenofovir and other antiviral agents was examined in vitro using recombinant HBV/baculovirus. The procedure for analysing the resistance profile is outlined in the following Examples 7-14.
(§2) Sf21 insect cells were maintained in supplemented Grace's insect medium further supplemented with 10% v/v heat-inactivated fetal bovine serum (Gibco BRL, Gaithersburg, Md.) in humidified incubator at 28 C with CO2. HepG2 cells were maintained in minimal essential medium supplemented with 10% v/v heat-inactivated fetal bovine serum (MEM-FBS). HepG2 cells were grown in humidified 37° C. incubators at 5% v/v CO2.
(§3) The recombinant HBV/baculovirus system used for antiviral testing has been previously described (Delaney et al., Antimicrob Agents Chernother 45(6): 1705-[…], 2001). In brief, the recombinant transfer vector was created by excising a fragment containing the 1.3× HBV genome construct and cloning it into the multiple cloning region of a baculovirus vector pBlueBac4.5 (Invitrogen, Carlsbad, Calif.). Point mutations were created by site directed mutagenesis using the commercial kits according to the manufacturers specifications (QuikChange, Stratagene). The nucleotide sequence of the plasmid and the point mutations generated by site directed mutagenesis were confirmed by sequencing using the ABI Prism Big Dye Terminator Cycle Sequencing Ready Reaction Kit according to the manufacturer's specifications (Perkin Elmer, Cetus Norwalk, Conn.). The panel of HBV mutants was generated from a wild type (WT) genotype D HBV isolate by site-directed mutagenesis. Mutants encoded either WT HBV polymerase or polymerase with the amino acid substitutions listed in Table 8 in an HBeAg negative (precore [PC] G1896A mutant) background. Other HBV mutants can be made and tested for antiviral sensitivity in a similar manner.
(§4) Purified recombinant transfer vector and linear AcMNPV baculovirus DNA were co-transfected into Sf21 cells using the BacNBlue transfection kit from Invitrogen (Carlsbad, Calif.); recombinant viruses were isolated by plaque assay according to the manufacturer's instructions. A series of recombinant viruses were amplified from isolated plaques by infecting 100-mm dishes of Sf21 cells. Viral DNA was extracted from amplified viruses using standard procedures. Purified viral DNA was digested with restriction enzymes and then fractionated by electrophoresis in a 1% […] agarose gel. Southern blotting was performed to determine which virus isolates contained the intact 1.3 HBV construct. A Boehringer Mannheim Random Prime DNA Labeling kit (Indianapolis, Ind.) was used to generate [P^32]-radiolabeled probes. A full-length double-stranded HBV genome was used as a template for all radiolabeled probes. Viral DNA sequence was confirmed by PCR amplification and sequencing of the polymerase catalytic region.
(§5) Baculoviruses were amplified by infecting suspension cultures of Sf21 cells in log phase at a multiplicity of infection (moi) of 0.5 pfu/cell. […] Virions were concentrated from infected Sf21 medium by centrifugation at 80,000×g and purified through a 20-60% w/v sucrose gradient. Purified virus was titrated in quadruplicate in Sf21 cells by end-point dilution. An aliquot of each high titer stock was used for DNA extraction. The polymerase gene was amplified and sequenced to confirm the presence of the site-directed mutagenesis.
(§6) HepG2 cells were seeded at approximately 20-40% confluency and then were grown for 16-24 hours before infection. On the day of infection, triplicate plates of cells were trypsinized, and viable cell number was determined with a hemocytometer using Trypan blue exclusion. Average cell counts were calculated and used to determine the volume of high-titer viral stock necessary to infect cells at the indicated moi. HepG2 cells were washed one time with serum-free MEM to remove traces of serum. […]

In assay [2] the test system is HBV mutant L180M double (rt L180M, M204V). Nature of the assay: Antiviral testing in HepG2 cells transduced with recombinant HBV/baculovirus, L180M double mutant. The note with it: area under dose-response curve, value relative to WT = 1.0. The assay is classed as cell-based, hepatitis B virus. The protocol: as §1, §2, §3, §4, §5, §6
Assay [3] relates to WT HBV (genotype D isolate, precore G1896A background). Kind of assay: Antiviral testing in HepG2 cells transduced with recombinant HBV/baculovirus, wild type. The note with it: none (WT) polymerase; area under dose-response curve; values set to 1.0 (relative to WT). The assay is classed as cell-based, hepatitis B virus. Here is the method:
as §1, §2, §3, §4, §5, §6

Assay [4] concerns HBV mutant V173L triple (rt V173L, L180M, M204V). Nature of the assay: Antiviral testing in HepG2 cells transduced with recombinant HBV/baculovirus, V173L triple mutant. It counts as cell-based, hepatitis B virus. The settings on record: area under dose-response curve, value relative to WT = 1.0. The protocol: as §1, §2, §3, §4, §5, §6
The next assay has as its system HBV. The note with it: 30 mg daily dose, over 12 weeks, phase II studies; cited from earlier work.

In the case of `Cc1cn([C@@H]2C[C@@H](O)[C@H](CO)O2)c(=O)[nH]c1=O` [L-dT], the AUC in assay [1] amounted to 21.1; in assay [2] it was 13.7; in assay [3], 1.0; in assay [4] it was 12.7.

As for `CC(C)(C)C(=O)OCOP(=O)(COCCn1cnc2c(N)ncnc21)OCOC(=O)C(C)(C)C` [ADV, adefovir dipivoxil], the AUC in assay [1] is 1.3; in assay [2] it was 1.7; in assay [3] it was 1.0; in assay [4] it was 0.4. The “mean decrease in viremia” value in the assay on HBV was 4 log10.

Take `CC(C)OC(=O)OCOP(=O)(CO[C@H](C)Cn1cnc2c(N)ncnc21)OCOC(=O)OC(C)C` [TFV, tenofovir disoproxil fumarate]: the AUC in assay [1] worked out at 4.2; in assay [2] it was 2.1; in assay [3], 1.0; in assay [4] it was 2.3.

Regarding `C=C1[C@H](CO)[C@@H](O)C[C@@H]1n1cnc2c(=O)[nH]c(N)nc21` [ETV, entecavir], the AUC stood at 242.7 in assay [1], 215.9 in assay [2], 1.0 in assay [3] and 47.5 in assay [4].

`Nc1nc(=O)n([C@@H]2CS[C@H](CO)O2)cc1F` [FTC, (−)-β-L-2′-3′-dideoxy-5-fluoro-3′-thiacydidine]: the AUC in assay [1] was determined as 464.4; in assay [2] it was 761.4; in assay [3], 1.0; in assay [4] it was 1200.0.

Turning to `Nc1ccn([C@@H]2CS[C@H](CO)O2)c(=O)n1` [LMV, (−)-β-2′-deoxy-3′-thiacytidine], the AUC in assay [1] turned out to be 603.4; in assay [2], 363.1; in assay [3], 1.0; in assay [4] it was 625.3.
